# Laboratory results published in ChEMBL document CHEMBL1201862, “PubChem BioAssay data set” (2004).
#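 Tested at 5 concentrations; 48 h exposure; 96-well plates; endpoints linearly interpolated, else capped at highest concentration. GI50 = concentration required for 50% inhibition of growth.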 Active and inactive are the calls of the source. Cut-off read from the data, not from the text of the source: active = GI50 up to about 1.1 µM and inactive = higher.
# Key:
# Assay in all cases: NCI-60 cell line screen, 48 h
# K562 = system: K562
# DMS-273 = system: DMS-273
# UO-31 = system: UO-31
# NCI-H23 = system: NCI-H23
# CAKI-1 = system: CAKI-1
# LOX IMVI = system: LOX IMVI
# HCT-15 = system: HCT-15
# RXF 393 = system: RXF 393
# TK-10 = system: TK-10
# 786-0 = system: 786-0
# HOP-62 = system: HOP-62
# Malme-3M = system: Malme-3M
# M14 = system: M14
# NCI-H522 = system: NCI-H522
# M19-MEL = system: M19-MEL
# OVCAR-8 = system: OVCAR-8
# U-251 = system: U-251
# SW-620 = system: SW-620
# SNB-75 = system: SNB-75
# HOP-18 = system: HOP-18
# RPMI-8226 = system: RPMI-8226
# HCT-116 = system: HCT-116
# SNB-78 = system: SNB-78
# IGROV-1 = system: IGROV-1
# HL-60 = system: HL-60
# A498 = system: A498
# SF-295 = system: SF-295
# OVCAR-3 = system: OVCAR-3
# SK-MEL-5 = system: SK-MEL-5
# SK-MEL-28 = system: SK-MEL-28
# SR = system: SR
# UACC-62 = system: UACC-62
# NCI-H226 = system: NCI-H226
# SNB-19 = system: SNB-19
# CCRF-CEM = system: CCRF-CEM
# KM12 = system: KM12
# HCC 2998 = system: HCC 2998
# COLO 205 = system: COLO 205
# OVCAR-5 = system: OVCAR-5
# HT-29 = system: HT-29
# ACHN = system: ACHN
# SK-MEL-2 = system: SK-MEL-2
# LXFL 529 = system: LXFL 529
# SF-268 = system: SF-268
# NCI-H460 = system: NCI-H460
# UACC-257 = system: UACC-257
# SF-539 = system: SF-539
# OVCAR-4 = system: OVCAR-4
# SN12C = system: SN12C
# DLD-1 = system: DLD-1
# MOLT-4 = system: MOLT-4
# EKVX = system: EKVX
# A549 = system: A549
# HOP-92 = system: HOP-92
# SK-OV-3 = system: SK-OV-3
# KM-20L2 = system: KM-20L2
# DMS-114 = system: DMS-114
compound,measurement,setting,value
COc1ccc2c(c1)[n+]([O-])c(C(=O)C/C(=N\NC(=O)C[N+](C)(C)C)C(=O)Nc1cc(Cl)ccc1Cl)c(C)[n+]2[O-],GI50,K562,> 100 µM (inactive)
same,GI50,DMS-273,> 100 µM (inactive)
same,GI50,UO-31,> 100 µM (inactive)
same,GI50,NCI-H23,> 100 µM (inactive)
same,GI50,CAKI-1,> 100 µM (inactive)
same,GI50,LOX IMVI,> 100 µM (inactive)
same,GI50,HCT-15,> 100 µM
same,GI50,RXF 393,> 100 µM (inactive)
same,GI50,TK-10,> 100 µM (inactive)
same,GI50,786-0,> 100 µM (inactive)
same,GI50,HOP-62,> 100 µM (inactive)
same,GI50,Malme-3M,> 100 µM (inactive)
same,GI50,M14,> 100 µM (inactive)
same,GI50,NCI-H522,> 100 µM (inactive)
same,GI50,M19-MEL,> 100 µM (inactive)
same,GI50,OVCAR-8,> 100 µM (inactive)
same,GI50,U-251,> 100 µM (inactive)
same,GI50,SW-620,> 100 µM (inactive)
same,GI50,SNB-75,> 100 µM (inactive)
same,GI50,HOP-18,> 100 µM (inactive)
same,GI50,RPMI-8226,> 100 µM (inactive)
same,GI50,HCT-116,> 100 µM (inactive)
same,GI50,SNB-78,> 100 µM (inactive)
same,GI50,IGROV-1,> 100 µM (inactive)
same,GI50,HL-60,88.3 µM (inactive)
same,GI50,A498,> 100 µM (inactive)
same,GI50,SF-295,> 100 µM (inactive)
same,GI50,OVCAR-3,> 100 µM (inactive)
same,GI50,SK-MEL-5,> 100 µM (inactive)
same,GI50,SK-MEL-28,> 100 µM (inactive)
same,GI50,SR,43.3 µM (inactive)
same,GI50,UACC-62,97.7 µM (inactive)
same,GI50,NCI-H226,> 100 µM (inactive)
same,GI50,SNB-19,> 100 µM (inactive)
same,GI50,CCRF-CEM,> 100 µM (inactive)
same,GI50,KM12,> 100 µM (inactive)
same,GI50,HCC 2998,> 100 µM (inactive)
same,GI50,COLO 205,> 100 µM (inactive)
same,GI50,OVCAR-5,> 100 µM (inactive)
same,GI50,HT-29,> 100 µM (inactive)
same,GI50,ACHN,> 100 µM (inactive)
same,GI50,SK-MEL-2,> 100 µM (inactive)
same,GI50,LXFL 529,> 100 µM (inactive)
same,GI50,SF-268,> 100 µM (inactive)
same,GI50,NCI-H460,> 100 µM (inactive)
same,GI50,UACC-257,> 100 µM (inactive)
same,GI50,SF-539,> 100 µM (inactive)
same,GI50,OVCAR-4,> 100 µM (inactive)
same,GI50,SN12C,> 100 µM (inactive)
same,GI50,DLD-1,> 100 µM (inactive)
same,GI50,MOLT-4,> 100 µM (inactive)
same,GI50,EKVX,0.0891 µM (active)
same,GI50,A549,> 100 µM (inactive)
same,GI50,HOP-92,> 100 µM (inactive)
CCCCCCCCOCC(O)COC(C)C (centres undefined),GI50,K562,28.1 µM (inactive)
same,GI50,DMS-273,16.7 µM (inactive)
same,GI50,UO-31,41.3 µM (inactive)
same,GI50,NCI-H23,25.7 µM (inactive)
same,GI50,CAKI-1,43.1 µM (inactive)
same,GI50,LOX IMVI,25.8 µM (inactive)
same,GI50,HCT-15,27.4 µM
same,GI50,TK-10,> 100 µM (inactive)
same,GI50,786-0,45.7 µM (inactive)
same,GI50,HOP-62,91.8 µM (inactive)
same,GI50,Malme-3M,61.7 µM (inactive)
same,GI50,M14,56.4 µM (inactive)
same,GI50,M19-MEL,45.5 µM (inactive)
same,GI50,OVCAR-8,70 µM (inactive)
same,GI50,U-251,89.3 µM (inactive)
same,GI50,SW-620,59.8 µM (inactive)
same,GI50,HOP-18,> 100 µM (inactive)
same,GI50,RPMI-8226,22.8 µM (inactive)
same,GI50,HCT-116,53.1 µM (inactive)
same,GI50,IGROV-1,> 100 µM (inactive)
same,GI50,HL-60,14.9 µM (inactive)
same,GI50,A498,68.9 µM (inactive)
same,GI50,SF-295,58.7 µM (inactive)
same,GI50,OVCAR-3,16.2 µM (inactive)
same,GI50,SK-MEL-5,26.2 µM (inactive)
same,GI50,SK-MEL-28,> 100 µM (inactive)
same,GI50,SR,17 µM (inactive)
same,GI50,UACC-62,91.4 µM (inactive)
same,GI50,NCI-H226,70 µM (inactive)
same,GI50,SK-OV-3,> 100 µM (inactive)
same,GI50,SNB-19,74.6 µM (inactive)
same,GI50,CCRF-CEM,20.9 µM (inactive)
same,GI50,KM-20L2,85.1 µM (inactive)
same,GI50,HCC 2998,26.6 µM (inactive)
same,GI50,COLO 205,40 µM (inactive)
same,GI50,OVCAR-5,> 100 µM (inactive)
same,GI50,HT-29,50.7 µM (inactive)
same,GI50,ACHN,97.9 µM (inactive)
same,GI50,LXFL 529,93.8 µM (inactive)
same,GI50,SF-268,39.1 µM (inactive)
same,GI50,NCI-H460,42.6 µM (inactive)
same,GI50,UACC-257,27.9 µM (inactive)
same,GI50,OVCAR-4,41.4 µM (inactive)
same,GI50,SN12C,24.2 µM (inactive)
same,GI50,DLD-1,89.7 µM (inactive)
same,GI50,MOLT-4,17 µM (inactive)
same,GI50,A549,41.6 µM (inactive)
same,GI50,HOP-92,13.7 µM (inactive)
CCc1ccccc1NC(=O)CCc1n[nH]c(=S)o1,GI50,K562,> 100 µM (inactive)
same,GI50,DMS-273,> 100 µM (inactive)
same,GI50,UO-31,> 100 µM (inactive)
same,GI50,NCI-H23,> 100 µM (inactive)
same,GI50,CAKI-1,> 100 µM (inactive)
same,GI50,HCT-15,19.3 µM
same,GI50,TK-10,> 100 µM (inactive)
same,GI50,786-0,> 100 µM (inactive)
same,GI50,HOP-62,> 100 µM (inactive)
same,GI50,Malme-3M,> 100 µM (inactive)
same,GI50,M14,> 100 µM (inactive)
same,GI50,M19-MEL,> 100 µM (inactive)
same,GI50,OVCAR-8,> 100 µM (inactive)
same,GI50,U-251,> 100 µM (inactive)
same,GI50,SW-620,18.6 µM (inactive)
same,GI50,SNB-75,> 100 µM (inactive)
same,GI50,HOP-18,> 100 µM (inactive)
same,GI50,RPMI-8226,98.9 µM (inactive)
same,GI50,HCT-116,18.5 µM (inactive)
same,GI50,SNB-78,> 100 µM (inactive)
same,GI50,IGROV-1,> 100 µM (inactive)
same,GI50,HL-60,> 100 µM (inactive)
same,GI50,A498,> 100 µM (inactive)
same,GI50,SF-295,> 100 µM (inactive)
same,GI50,OVCAR-3,> 100 µM (inactive)
same,GI50,SK-MEL-5,> 100 µM (inactive)
same,GI50,SK-MEL-28,> 100 µM (inactive)
same,GI50,UACC-62,> 100 µM (inactive)
same,GI50,DMS-114,> 100 µM (inactive)
same,GI50,NCI-H226,> 100 µM (inactive)
same,GI50,SK-OV-3,> 100 µM (inactive)
same,GI50,SNB-19,> 100 µM (inactive)
same,GI50,CCRF-CEM,> 100 µM (inactive)
same,GI50,KM12,> 100 µM (inactive)
same,GI50,KM-20L2,> 100 µM (inactive)
same,GI50,HCC 2998,> 100 µM (inactive)
same,GI50,COLO 205,> 100 µM (inactive)
same,GI50,OVCAR-5,> 100 µM (inactive)
same,GI50,HT-29,> 100 µM (inactive)
same,GI50,ACHN,> 100 µM (inactive)
same,GI50,LXFL 529,> 100 µM (inactive)
same,GI50,SF-268,> 100 µM (inactive)
same,GI50,NCI-H460,> 100 µM (inactive)
same,GI50,UACC-257,> 100 µM (inactive)
same,GI50,SF-539,76.2 µM (inactive)
same,GI50,OVCAR-4,> 100 µM (inactive)
same,GI50,SN12C,> 100 µM (inactive)
same,GI50,DLD-1,92.5 µM (inactive)
same,GI50,MOLT-4,> 100 µM (inactive)
same,GI50,EKVX,> 100 µM (inactive)
same,GI50,A549,> 100 µM (inactive)
same,GI50,HOP-92,> 100 µM (inactive)
